Reference: US5543410A, “Pharmacological use of phthaloylhydrazide derivatives; combination and application thereof” (L.I.M.A.D. Limited, priority 1993, dated 1996)
Read-outs that look alike come from different tables or passages of the source.

Columns and labels:
psoriasis = conditions: 2 to 5 mg/kg
hemorrhoids = system: hemorrhoids
Source text: Similarly, anal fissures have represented a difficult problem for modern medicine to resolve. In this instance, the inflammatory component is associated with a morphological defect.
The drug was used in the form of suppositories in 0.1 g doses once daily, in order to treat acute hemorrhoids in patients whose ages were from twenty to sixty years.

[1] = system: abortion induced by Salmonella typhinurium endotoxin; conditions: 15 mg/kg; abortions in eighty percent without drug
viral hepatitis B = system: viral hepatitis B
Experimental: Rectal suppositories containing the drug, which was to be administered in doses of 100 mg per day for ten days, were prescribed for this patient.

male rats = conditions: rat, in vivo
Experimental: Blood pressure levels were tape-recorded, by means of an electrical kymograph.
At the same time, electrocardiograms for the second standard position were recorded, along with frequency and depth of breathing by means of a Morey capsule.

[2] = system: suppuration of a paracolostomy incision
Experimental: The patient cited pain in the region affected by infiltration, and an increase in body temperature was observed. A suppository containing 200 mg of the drug was applied to the incision. […] An identical dose of the drug was administered again twelve hours later.

metabolic products = format: in vivo; conditions: in vivo; read-out: fraction of compound decomposed into 5-aminophthalic acid, oxygen, and nitrogen
[3] = pharmacokinetics, plasma half-life; format: in vivo
[4] = system: acute intestinal infections
Experimental: 200 mg of the drug in an isotonic aqueous solution was administered to this patient.

[5] = system: perineal cutaneous melanoma
Experimental: Localized excision of the tumor was performed, and the group of lymph nodes in the left inguinal region was removed.
This phenomenon was indicative of the onset of recurrence of the tumor. Intramuscular administration of the drug in 100 mg doses was provided on alternating days.
Beginning on the twentieth day, the drug was administered in 100 mg intramuscular doses every day.

[6] = general pharmacological / toxicological assessment; format: in vivo
skin diseases = conditions: 1 to 2 percent solution, two or three days
[7] = system: Salmonella typhinurium endotoxin
Experimental: These experiments were performed upon rabbits. Salmonella typhinurium endotoxin which had been purified by Bolvin's method was used in doses of 1 mg/kg according to body weight.
During the second series of experiments, the drug was administered intravenously in doses of 15 mg/kg according to body weight when clinical manifestations appeared (thirty to forty minutes after the commencement of the experiment). […] During the third series of experiments, the drug was administered five minutes after endotoxin inoculation.

leucocytes = conditions: inflammation of the cornea
erysipelas = assay: erysipelas
Experimental: During the patient's hospitalization, their condition was determined to be of moderate severity. […] This area was painful and warm when it was palpated. General loss of strength and a higher body temperature, up to 38.6° C., were also observed.
The respective compound was applied to the affected area of the patient's skin in the form of a 1 percent ointment. Suppositories containing 100 mg of the drug were prescribed at the same time.
Subsequently, the patient was treated with the drug in the form of suppositories for five days.
Objective indications included: a congested segment of skin on the front surface of the leg; this area protruded from the surface and it was painful when palpated. Body temperature: 37.8° C. The patient was experiencing generally disagreeable sensations, and intense pain in the vicinity of the inflamed area.
A 4 percent solution of the drug within a 20 percent DMSO solution was applied to the affected cutaneous area.

[8] = system: suppuration and abscesses affecting the jaw; conditions: one day after
Experimental: The patients were subdivided into three groups according to alphabetical order. The drug was prescribed for every patient on one occasion, although different dosages were adopted (1 mg/kg; 2 mg/kg; 4 mg/kg).

[9] = model systems (micellar phase); times less
Experimental: (§1) In models corresponding to acute purulent inflammation (wounds) caused by inoculation of a suspension of pathogenic microbes, such as E. coli and S. aureus, pentane production within air exhaled by the respective animals was measured.

[10] = system: peroxidation of blood plasma
Experimental: as §1

[11] = system: acute purulent inflammation (wounds) caused by E. coli and S. aureus; conditions: single administration
Experimental: as §1

[12] = system: non-specific ulcerative colitis and Crohn's disease
Experimental: These patients complained of periodic worsening of their symptoms over periods of three to five years.
100 mg per day of the drug was administered intravenously to these patients for three days.
On subsequent days, intramuscular administration of the drug was provided once daily, along with a 100 mg rectal suppository.

[13] = in vivo
[14] = system: mice exposed to carbon tetrachloride; conditions: 10 to 20 mg/kg; control group 65 percent
[15] = system: piglets affected by dysentery; assay: dysentery in piglets; format: in vivo
Experimental: Experiments were performed with piglets weighing from 30 to 40 kgs, which were affected by dysentery.
Nevertheless, symptoms reappeared six to seven hours later in one group of animals. This factor rendered repeated administration of the drug necessary.

neutrophils = conditions: in vivo (whole blood), NST test
[16] = 100 mg per day rectal suppositories
[17] = 100 mg intramuscular on alternating days
[18] = 15 mg/kg intravenous, when clinical manifestations appeared
[19] = 1 percent ointment plus 100 mg suppositories

Source text for autoimmune diseases: Nevertheless, repeated administration of the drug is required in order to accomplish this objective.
Source text for proctosigmoiditis: Treatment was provided for nine patients affected by proctosigmoiditis; their ages were between forty and fifty-five years. These patients had complained of irregular defecation, protrusion of the mucosae from the anus, and minor pain in the ileum, on the left side.
During visual examination of the intestine, it was observed that the mucosae of the rectal and sigmoid portions of the colon were affected by edema. In addition, images of the capillary network were blurred, and a fibrous film was present within limited segments. The drug was administered to these patients in the form of rectal suppositories, in doses of 100 mg per day, subsequent to enemas.

SMILES: Nc1cccc2c(=O)[nH][nH]c(=O)c12
- development of psoriasis (psoriasis): did not substantially influence the development of psoriasis
- recovery (hemorrhoids; 0.1 g once daily): The patients recovered fully
- time until inflammatory process and enlargement of hemorrhoidal nodes disappeared (hemorrhoids; 0.1 g once daily): fifth
- time until anal pain ceased (hemorrhoids; 0.1 g suppositories once daily): Seventeen to thirty
- time to alleviation of pain syndrome (hemorrhoids; rectal administration): thirty
- inflammatory process and edema (hemorrhoids; twelve hours): significant shrinkage of the inflammatory process and reduction of edema in hemorrhoidal nodes
- abortion prevented [1]: seven
- time to improvement (lethargy, pain disappeared) (viral hepatitis B; [16]): third
- time to normal biochemical blood data (viral hepatitis B; [16]): tenth
- chronic development of the process (viral hepatitis B; six subsequent months): absence of chronic development of the process
- bile pigments reaction (viral hepatitis B; tenth day): negative
- ultrasound examination of liver (viral hepatitis B; tenth day): No pathological conditions affecting the liver were observed
- symptoms and hepatic functions (viral hepatitis B; volunteers, 2 to 5 mg/kg per day, initial phase of chronic stage): symptoms were eliminated and previously impaired hepatic functions were restored
- expansion of malignant tumors (malignant tumors; increasing doses and frequency): ensures inhibition of the expansion of malignant tumors
- tumor dimensions and general condition (malignant tumors; three patients): favorable results represented by reduction of the dimensions of tumors and by an improvement in their general condition
- effect in combination with radiation therapy (malignant tumors; total dose of 60 to 90 g): the effect upon its action is intensified
- average fluctuations in blood pressure levels in comparison with initial levels (male rats): 2.79±0.72
- time to return of blood pressure to initial level (male rats): thirty
- rise in blood pressure in relation to the initial level (male rats; iv): 1.57±5.93%
- time to decline of temperature ([2]; 200 mg suppository): Six
- time until pain ceased ([2]; 200 mg suppository applied to incision): twenty to thirty
- wound ([2]; six days of treatment): the wound was wholly devoid of pus
- edema within soft tissues ([2]; twenty-one hours after commencement): had decreased significantly
- metabolised (metabolic products): > 90%
- duration of activity in hydrophobic phase of living membranes ([3]; in vivo): remains active for several hours
- half-life ([3]; intramuscular and rectal): forty to sixty
- half-life within blood plasma ([3]; intravenous): five to fifteen
- time to improvement, decrease in abdominal pain, cessation of diarrhea ([4]; 200 mg in isotonic aqueous solution): Forty to fifty
- fecal cultures for bacillary dysentery and Salmonella ([4]; in vivo): negative
- symptoms of intoxication ([4]; one day after admission): all of the symptoms of intoxication had disappeared
- infiltration in the region of the postoperative scar ([5]; 100 mg intramuscular every day, checkup thirty days later): disappearance of infiltration in the region of the postoperative scar was observed
- abnormal salivation [5, 17]: On the third day after the commencement of treatment, abnormal salivation began
- vomiting and diuresis [5, 17]: vomiting occurred on the fourth day, along with an increase in diuresis
- cessation of symptoms (salivation, vomiting, diuresis) ([5]; in vivo): gradually ceased on the thirteenth and fourteenth days
- toxicity ([6]; acceptable dosages): wholly non-toxic
- level of pharmacological activity ([6]; determined experimentally): higher level of pharmacological activity
- elimination of symptoms (skin diseases): sufficient to eliminate symptoms of various diseases
- time until symptoms and pain disappeared (proctosigmoiditis; [16]): one
- complaints (proctosigmoiditis; by the seventh day): the patients no longer complained of symptoms
- rectosigmoidoscopy finding (proctosigmoiditis; checkups): renewal of normal conditions was observed within the rectal mucosae and within the sigmoid colon
- diarrhea [7, 18]: diarrhea ceased completely
- time to reduction of intoxication symptoms [7, 18]: five to ten
- alleviation of intoxication symptoms and diarrhea ([7]; 25 mg/kg): complete alleviation of intoxication symptoms and diarrhea
- intoxication symptoms (conclusion) ([7]; 15 to 25 mg/kg): prevent or eliminate intoxication symptoms
- alleviation of symptoms ([7]; drug five minutes after endotoxin, third series): partial alleviation of symptoms
- leucocyte adhesion properties and chemotaxis (leucocytes): An increase in leucocyte adhesion properties and intensification of chemotaxis
- time until congestion and edema had diminished (erysipelas; [19]): twenty-four
- time until pain became less intense (erysipelas; [19]): five to six
- difficulties (erysipelas; by the end of the sixth day): the patient no longer cited difficulties
- therapeutic effect ([8]; 1 mg/kg): no therapeutic effect had occurred
- patients with therapeutic effect ([8]; 2 mg/kg): four
- patients with therapeutic effect ([8]; 4 mg/kg, each of the six patients): six
- antioxidant effectiveness less than previously identified antioxidants [9]: thirty to fifty
- antioxidant effectiveness versus known antioxidants ([10]; blood plasma): significantly superior to known antioxidants such as dibunol, alphatocopherol, and superoxydismutaze (SOD)
- increase in retardation constant for peroxidation of blood plasma ([10]; two to five minutes after administration): ten to twelve
- pentane level attained [11]: until a normal level was attained
- time to reduction in pentane in exhaled air [11]: thirty to sixty
- patients in whom subsequent development of pathological processes was prevented (autoimmune diseases; after an initial phase of treatment): 90%
- principal symptoms (autoimmune diseases; suppositories, intravenous or intramuscular, repeated): allows alleviation of the principal symptoms of these diseases
- time until abdominal and joint pain lessened ([12]; 100 mg per day intravenous): Thirty
- frequency of defecation ([12]; first three days): frequency of defecation was reduced
- frequency of defecation ([12]; fourteenth day): once or twice
- rectosigmoidoscopy finding ([12]; in vivo): did not reveal the presence of pus or blood, although traces of an inflammatory process were observed within mucous membranes
- frequency of defecation ([12]; sixth day): two or three
- pain and skin eruptions ([12]; sixth day): They were no longer experiencing pain, their skin eruptions had disappeared
- CL renal [13]: 50 to 80 mL/min
- mortality rate [14]: 14%
- effectiveness in alleviating diarrhea ([15]; 50 mg/kg, fourth series): limited effectiveness in alleviating diarrhea
- therapeutic effect ([15]; 10, 25, and 50 mg/kg, third series): relatively insignificant
- reappearance of dysentery symptoms ([15]; 20 and 50 mg/kg, second series): symptoms of dysentery reappeared at the end of the first day
- instances with therapeutic effects ([15]; 20 and 50 mg/kg, sixteen animals, second series): six
- rate at which superoxide radicals formed (neutrophils): an increase in the rate at which superoxide radicals formed
